The subject of this assay is colitis resulted by administration of an aqueous solution of dextran sulfate in rats. The assay is described as follows: Dextran sulfate-induced colitis in rats (Test Example 1). It is filed as in vivo, rat. As to conditions: F 334 rats, 3% dextran sulfate in drinking water for 5 days, 5 mg/kg orally twice daily. How it is done: Rats (males; eight weeks age) of an F 334 strain (Japan SLC) were allowed free access to a 3% aqueous solution of dextran sulfate for five days and, after that, they were allowed free access to tap water for one day. The test substance was orally administered twice daily at the start of drinking of a 3% aqueous solution of dextran sulfate. After six days from the initiation of the administration, the large intestine was excised and its length was measured. With regard to the symptom score, (1) stool consistency, (2) fecal blood and (3) degree of body weight reduction from the previous day were evaluated in five stages as shown in the following Table 1 and a mean value thereof was calculated. As to the test substance, the compound A (5 mg/kg) was used. The test substance was administered by suspending in a 0.5% aqueous solution of methyl cellulose. A 0.5% aqueous solution of methyl cellulose was administered to the control group. Ten rats per group were used. [table] With regard to shortening of the large intestine, significant difference from the control group was tested by a t-test (*: p<0.05). With regard to the symptom score of colitis, significant difference from the control group was tested by a t-test (##: p<0.01).

Molecules are shown by their SMILES.

`CC(C)N(CCCCOCC(=O)NS(C)(=O)=O)c1cnc(-c2ccccc2)c(-c2ccccc2)n1` [compound A, 2-{4-[N-(5,6-diphenylpyrazin-2-yl)-N-isopropylamino]butyl-oxy}-N-(methylsulfonyl)acetamide]: the “shortening of large intestine (length of the large intestine)” value (large intestine excised after six days, t-test vs control p<0.05, FIG. 1) is “significantly suppressed”. Further, for the setting “t-test vs control p<0.01, FIG. 2”, the “symptom score of colitis (stool consistency, fecal blood, body weight reduction)” value is on record as “significantly suppressed”.

The values above are taken from patent US8394793B2, “Therapeutic agent for inflammatory bowel disease” (Nippon Shinyaku Co., Ltd., priority 2008, dated 2013).
